{"source": "patent US8093290B2", "about": "“Coolant solutions and compositions comprising the same” (Givaudan SA, priority 2002, dated 2012)", "tested_on": "oral cavity", "test": "observed area of the oral cavity affected by the coolant effect", "conditions": "in vivo"}
{"smiles": "CC1CCC(C(C)C)C(OC(=O)C(C)O)C1", "note": "(stereo not shown) [Menthyl lactate, menthyl lactate]", "values": [{"measurement": "area of the oral cavity targeted by the coolant effect", "value": "front/middle of the mouth"}]}
